The text below walks through data of patent publication US8110599B2 (priority 2006, dated 2012).

Series [1] deals with S180 carcinoma. The protocol: S-180 cells were inoculated subcutaneously to mice at the axillary region at 0.5-1×10^6 cells/mouse. […] The drugs were given 6-8 times in total, one day spaced between two administrations for all the experiments. At the end of experiments, the tumors were removed and weighed, and the tumor inhibition ratio (TIR) was calculated. Pharmaceutical efficacy was considered with TIR≧40% and P<0.05, after statistical analysis.
The prepared solution was filtered through 0.45 and 0.22 μm membrane for sterilization, divided into stock aliquots, and stored at 4° C. for future use. The stock aliquot was further diluted with sterilized PBS (pH=7.4) to the required concentration before drug administration.
5-FU, CTX, and carboplatin solutions were freshly prepared in normal saline before use. […] Mice with the same sex were used in any individual experiment.
S180 cell line was from S180 bearing mice, and was intraperitoneally passaged in Kunming mouse.
Carcinoma inoculation and drug treatment: To each mouse, 0.2 ml of the S180 and H22 cell suspensions (2.5×10^6 cells/ml) were subcutaneously injected into the right axillary region (a total of 5×10^5 cells per mouse), respectively. On the second day, the animals were grouped at random and drugs were administered accordingly. […] The drugs were given once every other day with a total of 6-8 treatments.
Determination of tumor weight and calculation of TIR (tumor inhibition ratio), were as follows. Body weight was recorded on the day after the last drug administration and animals were then sacrificed. The carcinoma was removed and weighed, and TIR (%) was calculated according the following formula: […]

A short description of series [2]: in vivo. As to conditions: both, Kunming, mouse. The protocol: Major organs of dead animals were removed, fixed, and subject to pathological study. […] Normal saline (36.25 ml) and 37% HCl (0.75 ml) were added to obtained the AMP stock solution with a concentration of 50 mg/ml and pH of 7.3 (concentrations of solvents including PEG 400, propanediol, and ethanol were 0.03, 0.0445, and 0.015 g/ml, respectively). […] The stock solution was further diluted in normal saline to the required concentration, and was i.v. or i.p. administered to mice at 0.2 ml/10 g bodyweight.
Both male and female Kuming mice of SPF grade, weighing 18-22 g, were used in the experiment. […] All data were analyzed by DAS software.

Series [3] is described as follows: Solubility and solution stability. Type of series: physicochemical. The settings on record: pure AMP, white powder.
The test system of series [4] is human leukemia K562 cells. In words: MTT assay, in vitro killing of K562 cells. Type of series: cell-based. As to conditions: for IC50: Homo sapiens. Here is the method:
(1) AMP Na: An AMP-Na solution was prepared according to the method of Example 1 at an AMP:Na2CO3 ratio (w/w) of 5:3, which was then diluted 10 times with PBS (pH 6.5) to obtain the AMP-Na stock solution. The stock solution was further diluted by PBS (pH 7.4) to the concentration for cell exposure.
All the drug solutions described above were freshly prepared before use, and the final concentration for cell exposure was 100, 50, 25, 12.5, and 6.25 μg/ml, respectively.
K562 cells were cultured in RPMI1640 culture media supplemented with 10% calf serum, 100 U/ml of penicillin and streptomycin.
1. K562 cells at their log growth period were collected and centrifuged at 1,000 rpm for 5 minutes. The supernatant was discarded, and the cell density was adjusted to 1×10^5 cells/ml with RPMI 1640 cell culture media.
2. Ten microliter of the drug solution at various concentrations and 90 μl of the cell suspension or cell culture media were added to each well of the 96-well plate, followed by incubation in a CO2 incubator.
3. Cells were cultured for another 48-hour or 72-hour. Ten microliter of the MTT solution was added to per well 4 hours before the end of the experiment. Then, the solution was discarded and 100 μl of 10% SDS was added for termination of the experiment.
4. The absorbance of the solution was measured at 570 nm using a plate reader after being shaken on a shaker for 10 minutes. Results were printed out and recorded.
The inhibition ratio (%) was calculated from the following equation: […]
IC50 was calculated by linear regression of drug concentration v.s. cell inhibition ratio.
For orientation: Tetrazolium assays rely on reduction of a dye to a coloured formazan, in cell work by metabolically active cells.

[5] abbreviates: carboplatin experiment, carboplatin 25 mg/kg, ip alone.

In brackets after ≈: the same amount, converted by molar mass. Where two headings read alike, the source gives them in different places.

On to `O=c1[nH]cc(F)c(=O)[nH]1` [5-FU, reference compound], for which the “TIR (%)” value in series [1] (5-FU experiment, 5-FU 20 mg/kg, ip alone) is on record as 45.55%. In addition, the “Tumor weight (g) (X ± SD)” value in series [1] (5-FU experiment, 5-FU 20 mg/kg, ip alone, 11 days before sacrifice) worked out at 1.08 ± 0.60 g.
With `O=C1c2c(O)cc(O)cc2O[C@H](c2cc(O)c(O)c(O)c2)[C@H]1O` [AMP-DMSO, AMPelopsin, reference compound], the median lethal dose (LD50) at 7 day in series [2] and in series [2] (iv) was 1000 mg/kg in each case. Further, the Solubility in water result in series [3] was “does not dissolve”. Also, the 50% inhibitory concentration (IC50) was 4.09 µg/mL (≈ 12.8 µM) in series [4] (K562, 72 h); 32.3 µg/mL (≈ 101 µM) in series [4] (K562, after drug exposure for 48 h and 72 h); 32.3 µg/mL (≈ 101 µM) in series [4] (K562, cell treatment for 48 h).
Take `O.O.O.O.O.O=C1c2c(O)cc([O-])cc2OC(c2cc([O-])c(O)c([O-])c2)C1[O-].[Na+].[Na+].[Na+].[Na+]` (stereo not shown) [AMP-Na, pentahydrate of the AMPelopsin unsaturated sodium salt]: the “IC50 in killing K562 cells” value in series [4] (48 h) amounted to 29.56 µg/mL; in series [4] (72 h), 4.23 µg/mL; in series [4] (after drug exposure for 48 h and 72 h) it was 29.56 µg/mL. Besides, the “Killing effects towards K562 cells, AMP-Na compared with AMP-DMSO” value in series [4] (48 h and 72 h) is given as “no significant difference”. Besides, the “TIR (%)” value was determined as 4.43% in series [1] (5-FU experiment, AMP-Na 50 mg/kg, ip, alone or jointly with 5-FU); 31.28% in series [1] (5-FU experiment, AMP-Na 75 mg/kg, ip, alone or jointly with 5-FU); 33.49% in series [1] (5-FU experiment, AMP-Na 112 mg/kg, ip, alone or jointly with 5-FU, sodium salt); 4.45% in series [1] (5-FU experiment, AMP-Na 167 mg/kg, ip, alone or jointly with 5-FU); 23.22% in series [1] (carboplatin experiment, AMP-Na 50 mg/kg, ip, alone or jointly with carboplatin); 3.99% in series [1] (carboplatin experiment, AMP-Na 75 mg/kg, ip, alone or jointly with carboplatin). For the same molecule, the “TIR (%)” value in series [1] (carboplatin experiment, AMP-Na 112 mg/kg, ip, alone or jointly with carboplatin) is 13.87%; in series [1] (carboplatin experiment, AMP-Na 167 mg/kg, ip, alone or jointly with carboplatin), −7.47%. Besides, the “Tumor weight (g) (X ± SD)” value in series [1] (5-FU experiment, AMP-Na 50 mg/kg, ip, alone or jointly with 5-FU, 11 days) came out at 1.89 ± 0.75 g; in series [1] (5-FU experiment, AMP-Na 75 mg/kg, ip, alone or jointly with 5-FU, 11 days), 1.36 ± 0.69 g; in series [1] (5-FU experiment, AMP-Na 112 mg/kg, ip, alone or jointly with 5-FU, 11 days), 1.32 ± 0.78 g; in series [1] (5-FU experiment, AMP-Na 167 mg/kg, ip, alone or jointly with 5-FU, 11 days), 1.89 ± 0.59 g; in series [1] (CTX experiment, AMP-Na 50 mg/kg, ip, alone or jointly with CTX, 12 days), 1.66 ± 0.84 g; in series [1] (CTX experiment, AMP-Na 75 mg/kg, ip, alone or jointly with CTX, 12 days), 1.67 ± 1.03 g. The “Tumor weight (g) (X ± SD)” value in series [1] (CTX experiment, AMP-Na 112 mg/kg, ip, alone or jointly with CTX, 12 days) is recorded as 1.86 ± 1.21 g; in series [1] (CTX experiment, AMP-Na 167 mg/kg, ip, alone or jointly with CTX, 12 days) it was 2.08 ± 1.07 g; in series [1] (carboplatin experiment, AMP-Na 50 mg/kg, ip, alone or jointly with carboplatin, 10 days), 1.12 ± 0.30 g; in series [1] (carboplatin experiment, AMP-Na 75 mg/kg, ip, alone or jointly with carboplatin, 10 days) it was 1.40 ± 0.58 g; in series [1] (carboplatin experiment, AMP-Na 112 mg/kg, ip, alone or jointly with carboplatin, 10 days), 1.26 ± 0.69 g; in series [1] (carboplatin experiment, AMP-Na 167 mg/kg, ip, alone or jointly with carboplatin, 10 days), 1.57 ± 0.71 g. Besides, the “T1R (%)” value in series [1] (CTX experiment, AMP-Na 50 mg/kg, ip, alone or jointly with CTX) is 7.66%; in series [1] (CTX experiment, AMP-Na 75 mg/kg, ip, alone or jointly with CTX) it was 6.84%; in series [1] (CTX experiment, AMP-Na 112 mg/kg, ip, alone or jointly with CTX) it was −3.86%; in series [1] (CTX experiment, AMP-Na 167 mg/kg, ip, alone or jointly with CTX), −16.25%. In addition, the “Tumor suppression, AMP-Na alone” value in series [1] (single administration, S-180 bearing mice) is “no or weak tumor suppression”.
For `N.N.O=C([O-])C1(C(=O)[O-])CCC1.[Pt+2]` [carboplatin, reference compound], in series [1] (setting [5]), the “Body weight (g) after” value is on record as 18.57/25.75 g and the “TIR (%)” value is reported as 49.52%. For the same molecule, the “Tumor weight (g) (X ± SD)” value in series [1] (carboplatin experiment, carboplatin 25 mg/kg, ip alone, 10 days before sacrifice) was determined as 0.74 ± 0.28 g.

The term LD50 denotes the dose expected to kill half of the subjects tested. Usually IC50 stands for the point on the concentration scale where inhibition reaches its midpoint.
